From patent US12298319B2, “Method for measuring alpha value of muscarinic M1 receptor positive allosteric modulators” (Takeda Pharmaceutical Company Limited, priority 2017, dated 2025) come the findings set out here.

The target of data set [1] is T1, M2R (Homo sapiens, UniProt P08172).
T1 sequence (P08172 1-466): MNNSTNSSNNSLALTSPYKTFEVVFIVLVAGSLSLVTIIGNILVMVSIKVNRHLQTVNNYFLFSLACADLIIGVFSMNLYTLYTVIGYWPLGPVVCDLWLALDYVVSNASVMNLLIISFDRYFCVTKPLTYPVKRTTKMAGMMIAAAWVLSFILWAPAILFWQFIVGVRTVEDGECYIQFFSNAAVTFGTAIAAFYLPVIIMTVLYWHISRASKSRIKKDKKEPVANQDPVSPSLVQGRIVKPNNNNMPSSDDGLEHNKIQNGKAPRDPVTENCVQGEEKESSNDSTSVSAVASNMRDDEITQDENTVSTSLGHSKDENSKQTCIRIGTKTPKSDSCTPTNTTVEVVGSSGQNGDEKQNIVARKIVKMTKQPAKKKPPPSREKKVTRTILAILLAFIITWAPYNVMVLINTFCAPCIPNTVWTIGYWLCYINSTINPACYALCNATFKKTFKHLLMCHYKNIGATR
The experiment in a line: Ca2+ flux PAM activity against other muscarinic receptor subtypes, M2R. Type of data set: cell-based. To be noted: in the presence of EC20 ACh; read-out: PAM activity against other muscarinic receptor subtypes M2R pIP.

The target in data set [2] is T2, M4R (Homo sapiens, UniProt P08173).
T2 sequence (P08173 1-479): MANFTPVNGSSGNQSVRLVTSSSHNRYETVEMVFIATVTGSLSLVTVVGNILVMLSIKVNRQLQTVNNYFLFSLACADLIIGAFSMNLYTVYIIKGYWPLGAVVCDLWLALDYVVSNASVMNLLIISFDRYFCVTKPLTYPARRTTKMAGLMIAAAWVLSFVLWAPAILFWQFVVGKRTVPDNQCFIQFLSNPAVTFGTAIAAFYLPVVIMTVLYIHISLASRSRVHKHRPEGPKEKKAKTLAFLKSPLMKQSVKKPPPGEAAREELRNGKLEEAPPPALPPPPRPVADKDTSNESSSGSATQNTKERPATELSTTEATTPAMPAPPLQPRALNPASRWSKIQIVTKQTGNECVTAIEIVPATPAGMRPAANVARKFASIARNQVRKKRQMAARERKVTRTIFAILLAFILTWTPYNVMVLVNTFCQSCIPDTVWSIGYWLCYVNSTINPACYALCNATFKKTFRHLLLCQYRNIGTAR
The experiment in a line: Ca2+ flux PAM activity against other muscarinic receptor subtypes, M4R. Type of data set: cell-based. Conditions: in the presence of EC20 ACh; read-out: PAM activity against other muscarinic receptor subtypes M4R pIP (converted).

For data set [3], the system named is isolated mouse ileum. Nature of the data set: In vitro Magnus assay, EFS-induced ileum contraction. Conditions: for Ileum contraction at 1 μM (% of cont.) Mean: isolated mouse ileum with EFS. How it is done:
After overnight fasting, mice were sacrificed by decapitation. The ileum was quickly dissected out and suspended in ice-cold Krebs solution with the following composition (in mM): NaCl, 120.7; KCl, 5.9; CaCl2, 2.5; MgCl2, 1.2; […], 15.5; NaH2PO4, 1.2; and glucose, 11.5. Longitudinal segments of ileum (10-15 mm long) were detached of mesentery and adipose tissue, and mounted in organ baths containing 10 mL of Krebs solution aerated with 95% O2/5% CO2. Bath temperature was maintained at 37° C. The isolated ileum was given a passive load of 0.5 g. The contractile response of the isolated ileum was continuously recorded with isometric transducer (MLT050/A, ADInstruments, New South Wales, Australia) and recorder (PowerLab 8/30 ML870 and Octal Bridge Amp ML228, ADInstruments).
Platinum electrodes (3-20 mm apart, Iwashiya Kishimoto Medical Instruments, Kyoto, Japan) were mounted on both sides of the isolated ileum. The electrodes were connected to an electric stimulator (SEG-3104, Nihon Kohden, Tokyo, Japan) and an amplifier (SIG-3140, Nihon Kohden) for EFS with square wave pulses (20 V over the electrodes, 50 ms duration, and 20 Hz frequency); pulse trains were lasting for 10 s with 20 s pause.
The EFS produced sustained tonic contraction, followed by relaxation. The contraction was measured as the maximum strength from the baseline. The effects of experimental substances on the maximum contraction were measured. At the beginning of each experiment, a series of control EFS cycles was tested for more than 1 h to observe stability of contractile response. The ileum with a steady contractile response elicited by control EFS during the 1 h was used to investigate the effect of test compounds.
After responses to control EFS reached a steady-state, the compounds were added to the Magnus bath cumulatively, without washing between the subsequent doses. The interval between two adjacent doses was always at least 5 min, thus the isolated preparations receive at least 10 pulses in each dose of the compounds. After cumulating all doses of compounds, the bath was washed three times, and the ilea were allowed to rest for further 30 min. The effect of each concentration of the compounds on ileum contraction induced by EFS was calculated from the average value of 10 responses of the maximum strength. Then the ileum contractile response was expressed as a ratio (%) of the mean maximum contraction to that obtained with the pre-treated DMSO (solvent) to obtain concentration-response curve. Due to very small size of relaxations, the effects of the compounds on them was not be analyzed.

The subject of data set [4] is mice. The experiment in a line: Assessment of diarrhea in mice. Type of data set: in vivo, mouse. To be noted: for diarrhea induction: mice. The protocol: FIG. 1 depicts diarrhea induction by Compound C treatment in WT and M1R KO mice (hereinafter sometimes to be indicated as “MIKO mouse” in the present DESCRIPTION) (Example 11). […] The maximum score during the observation was adopted.
On the day of the experiment, mice were randomly divided into four groups (n=6-9). […] Each mouse was treated with either vehicle (10 or 20 mL/kg) or a single dose of each compound, including Compound A (3, 10 or 30 mg/kg p.o.), Compound B (10, 30, 100, 300 or 1,000 mg/kg p.o.) or Compound C (10 mg/kg p.o.). The animals were monitored, and scored the severity of diarrhea at 0.5, 1, 2, 4 and 6 h after administration. […] The highest score during the observation was adopted.

Where only a bound is given, the exact number is not on record here.

Turning to `Cn1cc(-c2ccc(CN3Cc4cccc(OCCN5CCCCC5)c4C3=O)cc2)cn1` [Compound F, 2-(4-(1-methyl-1H-pyrazol-4-yl)benzyl)-7-(2-(piperidin-1-yl)ethoxy)isoindolin-1-one], the EC50 in data set [1] and in data set [2] was above 10 µM throughout. Also, the “Ileum contraction at 1 μM (% of cont.) Mean” value in data set [3] is given as 102 % of cont.
Turning to `Cn1cc(-c2ccc(CN3Cc4cccc(-c5ccn[nH]5)c4C3=O)cc2)cn1` [Compound G, 2-(4-(1-methyl-1H-pyrazol-4-yl)benzyl)-7-(1H-pyrazol-5-yl)isoindolin-1-one], the EC50 in data set [1] and in data set [2] was above 10 µM throughout. The “Ileum contraction at 1 μM (% of cont.) Mean” value in data set [3] is reported as 93 % of cont.
For the compound `Cn1cc(-c2ccc(CN3Cc4cccc(Oc5c(F)cccc5C#N)c4C3=O)cc2)cn1` [Compound B, 3-fluoro-2-((2-(4-(1-methyl-1H-pyrazol-4-yl)benzyl)-3-oxo-2,3-dihydro-1H-isoindol-4-yl)oxy)benzonitrile], the EC50 in data set [1] and in data set [2] was above 10 µM throughout. Further, the “Ileum contraction at 1 μM (% of cont.) Mean” value in data set [3] is 97 % of cont. In addition, the “effect on EFS-induced ileum contraction” value in data set [3] (up to 1 μM) was “no effect”. The diarrhea induction entry in data set [4] (up to 1000 mg/kg p.o.) was “did not induce severe diarrhea”.
As to `Cn1ccc(-c2ccc(CN3Cc4cccc(O[C@H]5CCCC[C@@H]5O)c4C3=O)cc2)n1` [Compound A, 7-(((1S,2S)-2-hydroxycyclohexyl)oxy)-2-(4-(1-methyl-1H-pyrazol-3-yl)benzyl)isoindolin-1-one], the EC50 is above 10 µM in data set [1] and 1 µM in data set [2]. Further, in data set [3] (0.1 nM-1 μM), the “augmentation of EFS-induced ileum contraction” value is given as “concentration-dependent augmentation”. Further, in data set [3], the “Ileum contraction at 1 μM (% of cont.) Mean” value is listed as 116 % of cont. In addition, the “augmentation of EFS-induced ileum contraction with telenzepine” value in data set [3] (with 1 nM of telenzepine) is given as “suppressed”. In data set [4] (10 and 30 mg/kg p.o.), the diarrhea induction result is “caused severe diarrhea”.
On to `O=c1c2cn(Cc3ccc(-n4cccn4)cc3)c3ccccc3c-2nn1-c1ccccc1F` [Compound E, 2-(2-fluorophenyl)-5-(4-(1H-pyrazol-1-yl)benzyl)-2,5-dihydro-3H-pyrazolo[4,3-c]quinolin-3-one, reference compound], for which the EC50 in data set [1] and in data set [2] was above 10 µM each time. Further, the “Ileum contraction at 1 μM (% of cont.) Mean” value in data set [3] is on record as 106 % of cont.
Take `Cn1cc(-c2ccc(Cc3cc4c(=O)n([C@H]5CCCC[C@@H]5O)cnc4c4ccccc34)cn2)cn1` [Compound C, 3-((1S,2S)-2-hydroxycyclohexyl)-6-((6-(1-methyl-1H-pyrazol-4-yl)pyridin-3-yl)methyl)benzo[h]quinazoline-4(3H)-one, reference compound]: the EC50 in data set [1] and in data set [2] was above 10 µM in each case. In data set [3], the “Ileum contraction at 1 μM (% of cont.) Mean” value is on record as 104 % of cont. In data set [4] (10 mg/kg p.o., M1R KO mice), the “diarrhea induction in M1R KO mice” value is recorded as “not in M1R KO mice”. Also, in data set [4] (10 mg/kg p.o., WT mice), the “diarrhea induction in WT mice” value is “induced diarrhea”.
